Results taken from patent publication US20250304623A1, “PEPTIDES FOR INTRACELLULAR DELIVERY” (UNIVERSIDADE DE SANTIAGO DE COMPOSTELA, priority 2022, published 2025).
*: point of attachment. NHNH2 = NN*

How the values were obtained:
Type in all cases: cell-based
Hela cells = test: RLuc pDNA delivery, robotic library screening, HeLa
Hek293 cells = test: RLuc pDNA delivery, robotic library screening, Hek293
HCT116 cells = test: RLuc pDNA delivery, robotic library screening, HCT116
[1] = tested on: HepG2 cells expressing EGFP; test: EGFP-targeting siRNA delivery (GFP silencing vs siMOCK), HepG2
Method: To generate an EGFP expressing HeLa cell line, HeLa cells were transfected with EGFP pDNA (pEGFP-C1, Clontech) and stable transfectants were selected with 400 μg/mL of G-418 (Millipore). Green clones were selected by epifluorescence microscopy and tested for EGFP expression stability through several passages. […] All other EGFP-expressing cell lines were obtained in a similar way from parent non-EGFP-expressing cell lines.
Cells expressing EGFP were seeded in a 96 well plate the day before the experiment at a concentration of 50,000 cell/mL (100 μL/w) in DMEM+10% FBS+1% Gln-Abt. For robotic library screening, the delivery of an EGFP-targeting siRNA (EGFP: enhanced green fluorescent protein, Ambion® Silencer® GFP Positive Control siRNA (siGFP) (AM4626)) in six different cell lines expressing EGFP was performed. […] The mixture was shaken for 30 min at room temperature (rt) before the addition to the cells. The cell medium was aspirated, and cells were washed twice with PBS. Finally, 50 μL of the solution of siRNA/amphiphile complexes were added to the cells and incubated for 4 h. After transfection, the medium was replaced by 100 μL of fresh DMEM supplemented with 10% FBS. The fluorescence knockdown was quantified after 72 h in a plate reader, by comparison with cells transfected with a non-targeting siRNA control (siMOCK, Silencer™ Negative Control No. 1 siRNA (siMOCK) (AM4611)). EGFP knockdown was compared with Lipofectamine® RNAiMAX silencing efficiency (30-60% depending on cell line, defined with a numeric value in the below tables). All experiments were done in triplicate.
Tables 1-7: RLuc (pDNA) or EGFP (mRNA) expression levels were normalized to Lipofectamine reagents (value=1) and expressed as fold-times signal increase. In the case of siRNA, the siRNA treated cells fluorescence was compared with siMOCK control fluorescence, while Cas9-RNP mediated knockout was measured against the fluorescence of untreated cells. In both siRNA and Cas9-RNP, values are expressed as % fluorescence reduction. Amphiphile concentration was 5 μM in all cases. All experiments were performed in triplicate.
Tables 20-25 show the mean (triplicates) percentage of GFP-silencing, accounted by fluorescence intensity decrease relative to a non-targeting siRNA (siMOCK) control, measured after the transfection of siRNA by different amphiphiles at different concentrations in a variety of cell lines. Background values, accounted by untreated control cells, were subtracted for processing.

Substance | mean luminescent intensity (RLuc pDNA) (Hela cells; HeLa, Petroselinyl, 10 μM) [RLU] | mean luminescent intensity (RLuc pDNA) (Hela cells; Hela, Dodecanal, 10 μM) [RLU] | mean luminescent intensity (RLuc pDNA) (Hela cells; Hela, Myristoleyl, 5 μM) [RLU] | mean luminescent intensity (RLuc pDNA) (Hela cells; Hela, Myristoleyl, 10 μM) [RLU] | mean luminescent intensity (RLuc pDNA) (Hela cells; Hela, Oleyl, 15 μM) [RLU] | mean luminescent intensity (RLuc pDNA) (Hela cells; Hela, Palmitoleyl, 5 μM) [RLU] | mean luminescent intensity (RLuc pDNA) (Hela cells; Hela, Palmitoleyl, 10 μM) [RLU] | mean luminescent intensity (RLuc pDNA) (Hela cells; Hela, Palmitoleyl, 15 μM) [RLU] | mean luminescent intensity (RLuc pDNA) (Hela cells; Hela, Petroselinyl, 5 μM) [RLU] | mean luminescent intensity (RLuc pDNA) (Hela cells; Hela, Petroselinyl, 15 μM) [RLU] | mean luminescent intensity (RLuc pDNA) (Hek293 cells; Myristoleyl, 5 μM) [RLU] | mean luminescent intensity (RLuc pDNA) (HCT116 cells; Dodecanal, 10 μM) [RLU] | mean luminescent intensity (RLuc pDNA) (HCT116 cells; Myristoleyl, 5 μM) [RLU] | mean luminescent intensity (RLuc pDNA) (HCT116 cells; Myristoleyl, 10 μM) [RLU] | mean luminescent intensity (RLuc pDNA) (HCT116 cells; Oleyl, 15 μM) [RLU] | mean luminescent intensity (RLuc pDNA) (HCT116 cells; Palmitoleyl, 5 μM) [RLU] | mean luminescent intensity (RLuc pDNA) (HCT116 cells; Palmitoleyl, 15 μM) [RLU] | mean luminescent intensity (RLuc pDNA) (HCT116 cells; Petroselinyl, 5 μM) [RLU] | mean luminescent intensity (RLuc pDNA) (HCT116 cells; Petroselinyl, 10 μM) [RLU] | mean luminescent intensity (RLuc pDNA) (HCT116 cells; Petroselinyl, 15 μM) [RLU] | other results
Ac-RRLK*RLK*RRLK*RL-NH2 [Peptide 13.3] | 4639 | 23656 | 17325 | 2310 | 1922 | 18783 | 105810 | 137093 | 657 | 90989 | 368875 | 4741 | 51434 | 32315 | 1949 | 142094 | 17328 | 14318 | 99695 | 36052 | mean luminescent intensity (RLuc pDNA) (Hela cells; HeLa, Dodecanal, 5 μM): 18306 RLU; mean luminescent intensity (RLuc pDNA) (Hela cells; Hela, Myristoleyl, 15 μM): −37 RLU; mean luminescent intensity (RLuc pDNA) (Hek293 cells; Dodecanal, 5 μM): 295675 RLU; mean luminescent intensity (RLuc pDNA) (HCT116 cells; Dodecanal, 5 μM): 60338 RLU; mean luminescent intensity (RLuc pDNA) (HCT116 cells; Myristoleyl, 15 μM): 3431 RLU; percentage of GFP-silencing relative to siMOCK ([1]; Dodecanal, 10 μM): 31%; percentage of GFP-silencing relative to siMOCK ([1]; Dodecanal, 15 μM): 33%; percentage of GFP-silencing relative to siMOCK ([1]; Myristoleyl, 5 μM): 13%; percentage of GFP-silencing relative to siMOCK ([1]; Myristoleyl, 10 μM): 20%; percentage of GFP-silencing relative to siMOCK ([1]; Palmitoleyl, 5 μM): 19%; percentage of GFP-silencing relative to siMOCK ([1]; Palmitoleyl, 10 μM): 46%; percentage of GFP-silencing relative to siMOCK ([1]; Palmitoleyl, 15 μM): 10%; percentage of GFP-silencing relative to siMOCK ([1]; Petroselinyl, 5 μM): 9%; percentage of GFP-silencing relative to siMOCK ([1]; Petroselinyl, 10 μM): 41%; percentage of GFP-silencing relative to siMOCK ([1]; Petroselinyl, 15 μM): 8%
Ac-RRLK*RLLRRLK*RLK*RRL-NH2 (Ac-RRLK(NHNH2)RLLRRLK(NHNH2)RLK(NHNH2)RRL-NH2; not fully specified; printed as Ac-RRLK*RLLRRLK*RLK*RRL-NH2; also: K*4,K*11,K*14: native or modified lysine (ε-amide to a linker)) [Peptide 17.3] | 85712 | 1535 | 309 | −392 | 2261 | 190106 | 246511 | 163602 | 237718 | 7153 | 158771 | 1102 | 7561 | −331 | 1957 | 14037 | 892 | 46486 | 11022 | 1651 | mean luminescent intensity (RLuc pDNA) (Hela cells; Hela, Dodecanal, 15 μM): 1856 RLU; mean luminescent intensity (RLuc pDNA) (Hela cells; Hela, Oleyl, 10 μM): 2071 RLU; mean luminescent intensity (RLuc pDNA) (Hek293 cells; Dodecanal, 10 μM): 12692 RLU; mean luminescent intensity (RLuc pDNA) (Hek293 cells; Dodecanal, 15 μM): 3248 RLU; mean luminescent intensity (RLuc pDNA) (Hek293 cells; Myristoleyl, 10 μM): 4717 RLU; mean luminescent intensity (RLuc pDNA) (Hek293 cells; Myristoleyl, 15 μM): −110 RLU; mean luminescent intensity (RLuc pDNA) (Hek293 cells; Palmitoleyl, 5 μM): 10403 RLU; mean luminescent intensity (RLuc pDNA) (Hek293 cells; Palmitoleyl, 10 μM): 1319 RLU; mean luminescent intensity (RLuc pDNA) (Hek293 cells; Palmitoleyl, 15 μM): −644 RLU; mean luminescent intensity (RLuc pDNA) (HCT116 cells; Oleyl, 10 μM): 1799 RLU; mean luminescent intensity (RLuc pDNA) (HCT116 cells; Palmitoleyl, 10 μM): 5954 RLU; percentage of GFP-silencing relative to siMOCK ([1]; Dodecanal, 5 μM): 13%; percentage of GFP-silencing relative to siMOCK ([1]; Dodecanal, 10 μM): 18%; percentage of GFP-silencing relative to siMOCK ([1]; Dodecanal, 15 μM): −4%; percentage of GFP-silencing relative to siMOCK ([1]; Myristoleyl, 15 μM): −18%; percentage of GFP-silencing relative to siMOCK ([1]; Oleyl, 10 μM): 8%; percentage of GFP-silencing relative to siMOCK ([1]; Palmitoleyl, 5 μM): 4%; percentage of GFP-silencing relative to siMOCK ([1]; Palmitoleyl, 15 μM): −2%; percentage of GFP-silencing relative to siMOCK ([1]; Petroselinyl, 5 μM): −11%; percentage of GFP-silencing relative to siMOCK ([1]; Petroselinyl, 10 μM): 5%
